# From US20100286061A1, “PLASMIN-INHIBITORY THERAPIES” (priority 2004, published 2010)
# Entries after “also recorded” stand apart in the source; their conditions may differ. Where two headings read alike, the source gives them in different places. No end group written: not given here.
# How the values were obtained:
# SW-480 cells = test: Apoptosis (caspase 3/7 activity, FACS), SW-480; format: cell-based, human; conditions: also FACS assay
# Description: (§1) Apoptosis was evaluated using an assay for detecting caspase 3/7 activity using caspase 3/7 substrate. Apoptosis was also not detected using a FACS assay.
# [1] = Pharmacokinetics of iodinated protein in normal mice; format: in vivo; conditions: tail vein injection
# Description: (§2) Labeling: we used […] protein and the Iodogen (Pierce) method, ˜1.7 mCi. Purification: we used D-salt polyacrylamide column and collected fractions, with total recovery ˜90%. We pooled high yield fractions for injections. Mice: we injected […] via tail vein. One time point/animal; four animals/time point. We used the following time points: no PEG at 0, 7, 15, 30, and 90 min. PEG at 0, 7, 15, 30, and 90 min, 4, 8, 16, and 24 hrs. We analyzed total plasma counts, used HPLC on Superose 12 (stability), and analyzed biodistribution. Rabbits: we injected 80 mg/animal via left ear vein. Blood was drawn from the right ear at following time points: no PEG at 0, 7, 15, 30, 90 min, 4, 8, 16, 24, 48, 72, and 96 hrs. PEG at 0, 7, 15, 30, 90 min, 4, 8, 16, 24, 48, 72, 96, 120, 144, 168, and 192 hrs. We preformed the following analyses: total plasma counts and HPLC on Superose 12 (stability) at 48, 72, 96, 120, 144, 168, and 192 hrs.
# [2] = Allometric extrapolation of stability to humans; conditions: allometric extrapolations from mouse and rabbit
# Excerpt: By allometric extrapolations, we should expect a stability of 9 days in humans.
# [3] = test system: plasmin-activated MMP-9 activity; test: BIOTRAK assay kit, MMP-9 activity in HL60 conditioned media; format: cell-based; conditions: 1 μM, HL60, two days of culture
# Description: In addition to gelatin zymography, we evaluated the plasmin inhibitors using the BIOTRAK® assay kit. HL60 were seeded at 4×10^5 cells/well (24 wells plate) in a serum free medium (UltraCulture medium). The day after, different conditions were evaluated: samples with and without activators of pro-MMP9 (Plasmin and pro-MMP-3) and samples with and without DX-1000 and 4-PEG-DX-1000 (1 μM). After two days of culture, conditioned media were collected an activity of MMP-9 was assessed using the BIOTRAK® assay kit. Assay time was approximately one hour under standard conditions. At a 1 μM concentration, DX-1000 and 4-PEG DX-1000 effected an approximately 68-70% reduction in plasmin-activated MMP-9 activity.
# HUVECs = test: Tube formation assay, HUVECs on collagen type I; format: cell-based, human; conditions: for IC50: total tube length, 16-18 hours, read-out: IC50 tube formation, HUVEC
# Description: (§3) Tube formation assay: HUVECs were cultured on gelatin-coated culture dishes in RPMI medium. The cells (passage 2) were seeded at 8e4/well of a 96-well plate on collagen type I (1.5 mg/ml, SERVA) in their culture medium (EGM-2 complete medium supplemented with 10% FCS) and allowed to spread for 1 hour. The culture medium was then discarded and the cells were covered with a new layer of collagen type I (1.5 mg/ml, new preparation). […] Mouse endothelial cells (EC) (LEII cell line) were seeded at 2e4/well of a 96-well plate on GFR-Matrigel (BD) in their culture medium (IMDM supplemented with 10% FCS) in presence of a dose range of DX-1000 and incubated at 37° C./5% CO2 for 5 hours. Endothelial tube formation was assessed with an inverted photomicroscope (Analis). Microphotographs of the center of each well at low power (40×) were taken with a NIKON camera with the aid of imaging-capture software (NIKON). Tube formation in the microphotographs was quantitatively analyzed (total tube length) with METAVUE™ software (Universal Imaging Corporation). Tube formation by untreated HUVECs in full endothelial cell growth medium was used as a control. IC50 values were determined with SIGMAPLOT™.
# [4] = test system: plasmin-mediated pro-MMP-9 activation in HL-60 cells; test: Gelatin zymography of HL-60 conditioned media; format: cell-based; conditions: for inhibition of plasmin-mediated pro-MMP-9 activation: HL-60 cells, gelatin zymography, 1 μM, 48 hours
# Description: (§4) Cell culture of tumor cell lines: HT-1080 (fibrosarcoma), and LNCaP (androgen-dependent prostate cancer) cell lines were grown to 80% confluence in Dulbecco's modified Eagle medium (DMEM) supplemented with 10% FCS, glutamine ([…]), sodium bicarbonate (2.1 g/l), ascorbic acid ([…]) and penicillin-streptomycin (P/S) (100 U/ml). LNCaP cells were stimulated with di-hydro-testosterone (DHT, 10 nM). Non-adherent HL-60 (acute myeloid leukemia) cell line was grown in RPMI medium supplemented with 20% FCS, glutamine 4 mM, sodium bicarbonate (1.5 g/l) and P/S (100 U/ml). Cultures were maintained at a cell concentration between 1e5 and 1e6/ml.
# Gelatin zymography: HL-60 cells were cultured in serum-free medium (Ultraculture medium). Different conditions were considered: with and w/o DX-1000 at 1 μM; with or without pro-MMP-9 activators (plasmin+pro-MMP-3). Cells were cultured at 37° C./5% CO2 for 48 hours. Aliquots of conditioned media (CM) were then collected, clarified by centrifugation, mixed with electrophoresis sample buffer without reducing agent, and applied to 10% acrylamide gels containing gelatin (1 mg/ml). Active recombinant gelatinases served as standard. Samples were resolved at 20 mA, washed in 2% Triton X-100 for 1 hour and incubated at 37° C. for 16 hours in activation buffer containing 50 mM Tris-HCl, pH 7.4, 0.2 M NaCl, 5 mM CaCl2. After staining with Coomassie brilliant blue R-250, the gelatinolytic activities were detected as clear bands against the blue background.
# [5] = Pharmacokinetics of iodinated protein in rabbits; format: in vivo; conditions: rabbit, ear vein injection
# Description: as §2
# endothelial cells = test: in vitro endothelial tubulogenesis (tube formation) assay, cell type not specified; format: cell-based; conditions: for inhibition of tubulogenesis / angiogenesis in vitro: qualitative
# Description: as §3
# DX-1000 was also tested for its activity in an in vitro endothelial tubulogenesis assay (“tube formation assay” described in Methods.). […]
# HL-60 cells = test: Apoptosis (caspase 3/7 activity, FACS), HL-60; format: cell-based; conditions: also FACS assay
# Description: as §1
# [6] = test system: Mouse endothelial cells (EC) (LEII cell line); test: Tube formation assay, mouse endothelial cells (LEII) on GFR-Matrigel; format: cell-based; conditions: for IC50: total tube length, 5 hours
# Description: as §3
# SW480 cells = test: Soft agar colony formation; format: cell-based, human; conditions: 0.1 to 50 μM
# Description: We also evaluated DX-1000 in an assay to measure the sensitivity of human tumors to drugs before progressing to in vivo studies. SW-480 cells are grown in vitro in soft agar, reducing cell movement and allowing individual cells to develop into cell clones that are identified as single colonies. 3,000 SW480 cells were seeded into each well of six well plates. Each treatment was run in triplicate. Five 4× images were taken from each well for quantification using the […]® software.
# [7] = global coagulation screening tests (haemostasis in vitro)
# clot lysis = test: clot lysis
# LNCaP cells = test: Chemo-invasion through Matrigel, LNCaP cells (DHT-stimulated); format: cell-based
# Description: as §4
# (§5) Chemo-invasion: HT-1080 and LNCaP cells were seeded at 10^6/well in 24-well cluster plates and incubated overnight. They were then incubated in the presence of a dose range of DX-1000 for 24 hours. […] Chemo-invasion was assessed using Transwell cell culture chamber inserts (Becton Dickinson) with Growth Factor Reduced-[…]® (GFR-[…]®) coated filters. After trypsinization, cells were seeded in the upper part of the invasion chamber (1e4/insert). RPMI medium supplemented with 5% FCS and 1% BSA and NIH3T3 CM used as chemoattractants for HT-1080 and LNCaP cells, respectively. After 24 hours of incubation at 37° C., filters were removed from the chambers, stained, and the % of invading cells was evaluated. Each condition was performed in duplicate.
# [8] = activated partial thromboplastin time (APTT)
# HT-1080 cells [9] = test: Cell migration: scraping assay and Boyden chamber assay without Matrigel; format: cell-based; conditions: 1-10 μM in scraping assay
# Description: Scraping assay: HT-1080 cells were seeded at 2e6/well in 6-well plates in complete medium. […] Cell layers were then scraped with a plastic tip.
# The effect of DX-1000 on cell migration was evaluated using two different assays, the scraping assay and a Boyden chamber assay without Matrigel.
# fibrinolysis = test: Thrombelastography (TEG); conditions: 280-560 nM DX-1000
# prothrombin time (PT) = conditions: concentrations>5.6 μM
# platelet function = platelet function screening test
# human plasmin = human plasmin (Homo sapiens, UniProt P00747); test: plasmin inhibition (Ki); format: biochemical
# Clauss fibrinogen assay = conditions: concentrations>5.6 μM
# HT-1080 cells [10] = test: Chemo-invasion through Matrigel, HT-1080 cells; format: cell-based
# Description: as §4, §5
# [11] = DX-1000 1-10 nM, Matrigel or collagen type I
# Chain of human plasmin (P00747 581-810 limits assumed): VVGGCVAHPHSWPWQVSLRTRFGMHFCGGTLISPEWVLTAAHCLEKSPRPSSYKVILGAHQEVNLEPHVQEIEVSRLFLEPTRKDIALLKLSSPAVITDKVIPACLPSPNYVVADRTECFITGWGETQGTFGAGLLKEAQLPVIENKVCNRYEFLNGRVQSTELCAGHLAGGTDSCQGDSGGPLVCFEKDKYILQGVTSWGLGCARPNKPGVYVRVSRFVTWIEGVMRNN
# Chain of human plasmin (P00747 97-580 partner limits assumed): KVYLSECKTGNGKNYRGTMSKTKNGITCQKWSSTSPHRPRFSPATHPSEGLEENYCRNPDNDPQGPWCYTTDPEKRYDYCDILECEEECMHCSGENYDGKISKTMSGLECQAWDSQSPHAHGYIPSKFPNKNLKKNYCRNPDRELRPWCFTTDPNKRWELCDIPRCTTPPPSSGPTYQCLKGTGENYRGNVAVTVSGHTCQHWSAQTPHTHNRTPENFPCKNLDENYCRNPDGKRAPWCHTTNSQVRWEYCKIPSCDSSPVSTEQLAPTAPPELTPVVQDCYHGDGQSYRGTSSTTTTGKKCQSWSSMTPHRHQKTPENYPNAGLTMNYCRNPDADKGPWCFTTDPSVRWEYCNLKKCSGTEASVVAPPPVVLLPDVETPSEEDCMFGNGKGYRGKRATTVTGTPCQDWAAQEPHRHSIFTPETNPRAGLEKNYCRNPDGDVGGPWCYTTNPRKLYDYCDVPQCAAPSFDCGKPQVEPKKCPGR
substance,measurement,setting,value
"4-PEG DX-1000: exemplary modified DX-1000 molecule that includes four PEG moieties (MHSFCAFKAETGPCRARFDRWFFNIFTRQCEEFIYGGCEGNQNRFESLEECKKMCTRD; cysteine pairing not given here; also: four PEG moieties, places not given here)",induction of apoptosis in SW-480 cells,SW-480 cells,do not induce apoptosis
same,half-life,[1],13 h
same,expected stability in humans,[2],9 days
same,reduction in plasmin-activated MMP-9 activity,[3],68-70%
same,IC50,HUVECs,8.3 nM
same,inhibition of plasmin-mediated pro-MMP-9 activation,[4],92%
same,half-life,[5],59 h
same,inhibition of tubulogenesis / angiogenesis in vitro,endothelial cells,also inhibited tube formation
same,IC50,"endothelial cells; read-out: IC50 tube formation, cell type not given",0.98 ± 1.25 nM
same,induction of apoptosis in HL-60 cells,HL-60 cells,do not induce apoptosis
same,IC50,[6],15.8 nM
same,colony formation by SW480 cells,SW480 cells,did not inhibit colony formation
DX-1000: Kunitz domain that inhibits human plasmin; framework region of human LACI; SEQ ID NO:22 or 23 (MHSFCAFKAETGPCRARFDRWFFNIFTRQCEEFIYGGCEGNQNRFESLEECKKMCTRD),induction of apoptosis in SW-480 cells,SW-480 cells,do not induce apoptosis
same,effects in global coagulation screening tests / haemostasis in vitro,[7],did not significantly influence haemostasis in vitro; also recorded: did not detect any clinically significant effects; also recorded: no clinically significant effects
same,concentration at which inhibition of clot lysis was observed,clot lysis,> 700 nM
same,half-life,[1],0.45 h
same,concentrations effective at inhibiting invasion in vitro (LNCaP),LNCaP cells,effective at nanomolar and sub-nanomolar concentrations
same,in vitro invasiveness of tumor cells (LNCaP),LNCaP cells,decreased in vitro invasiveness of tumor cells; also recorded: decreases the in vitro invasiveness of tumor cells
same,potency in invasion assay compared with aprotinin (LNCaP),LNCaP cells,more potent inhibitor than aprotinin
same,inhibition of DHT-stimulated invasion of LNCaPs through Matrigel,LNCaP cells; DX-1000 1 nM,inhibited
same,APTT clotting times versus normal range,[8]; 1.4-5.6 μM,remained within the normal range
same,effect on activated partial thromboplastin time (APTT),[8]; higher doses (1.4-5.6 μM),weak dose-dependent effect
same,reduction in plasmin-activated MMP-9 activity,[3],68-70%
same,two-dimensional migration of HT-1080 cells in vitro,HT-1080 cells [9],did not inhibit migration; also recorded: does not inhibit
same,fibrinolysis in thrombelastography (TEG),fibrinolysis; two subjects with upper normal values,inhibition of fibrinolysis
same,fibrinolysis in TEG with tPA,fibrinolysis; tPA,reduction in fibrinolysis
same,effect on prothrombin time (PT),prothrombin time (PT),did not observe an effect
same,tube formation of human endothelial cells,HUVECs; [11],efficiently blocked tube formation
same,IC50,HUVECs; listed as DX-1000 (unmodified),1.39 nM
same,inhibition of plasmin-mediated pro-MMP-9 activation,[4],64%
same,MMP (gelatinase) expression and activation,[4]; qualitative,inhibited plasmin-mediated MMP activation; also recorded: down-regulates MMP expression and activation; also recorded: down-regulated efficiently the expression and activation of gelatinases
same,effects in platelet function screening test,platelet function,no clinically significant effects
same,Ki,human plasmin,0.088 nM
same,half-life,[5],about 1 h
same,efficiency at inhibiting tube formation compared with aprotinin,endothelial cells,at least as efficient as aprotinin
same,inhibition of tubulogenesis / angiogenesis in vitro,endothelial cells,decreased in vitro angiogenesis; also recorded: potent inhibitor of tubulogenesis in vitro
same,induction of apoptosis in HL-60 cells,HL-60 cells,do not induce apoptosis
same,effect on Clauss fibrinogen assays,Clauss fibrinogen assay,did not observe an effect
same,concentrations effective at inhibiting invasion in vitro (HT-1080),HT-1080 cells [10],effective at nanomolar and sub-nanomolar concentrations
same,in vitro invasiveness of tumor cells (HT-1080),HT-1080 cells [10],decreased in vitro invasiveness of tumor cells; also recorded: decreases the in vitro invasiveness of tumor cells
same,potency in invasion assay compared with aprotinin (HT-1080),HT-1080 cells [10],more potent inhibitor than aprotinin
same,inhibition of invasion of HT-1080 through Matrigel,HT-1080 cells [10]; DX-1000 1 nM,inhibited
same,tube formation of mouse endothelial cells,[6]; [11],efficiently blocked tube formation
same,IC50,[6],16.6 nM
same,colony formation by SW480 cells,SW480 cells,did not inhibit colony formation
